Earlier results on one compound are cited in patent US11980686B1, “Agomelatine oral transmucosal film” (Xiamen LP Pharmaceutical Co., Ltd., priority 2023, dated 2024).

The conditions of the series: oral tablet.

As to `COc1ccc2cccc(CCNC(C)=O)c2c1` [agomelatine, Agomelatine], the “Inter-individual variation (AUC)” value was 104% and the “Intra-subject variation (AUC)” value is 157%.
